Results from patent publication US20150374666A1, “AQUEOUS LIQUID COMPOSITION INCLUDING HIGH CONCENTRATION OF L-HISTIDINE” (AJINOMOTO CO., INC., priority 2013, published 2015).

Assay: solubility of histidine added to acidic aqueous solution, left standing at room temperature for 24 hr
Format: physicochemical
Procedure: (§1) Acidic substances (acetic acid, phosphoric acid, citric acid, malic acid, or tartaric acid) in the amounts indicated in Table 1 were added to and dissolved in water at 80 to 100° C. to prepare acidic aqueous solutions. Then, to the prepared acidic aqueous solutions was added histidine (HIS) in the amounts indicated in Table 1, and the mixtures were thoroughly stirred. The mixtures were left standing at room temperature for 24 hr, and the solubility of histidine was examined.
Acidic substances (citric acid, malic acid or tartaric acid) in the amounts indicated in Table 2 were added to and dissolved in water at 80 to 100° C. to prepare acidic aqueous solutions. Then, to the prepared acidic aqueous solutions was added histidine (HIS) in the amounts indicated in Table 2 to a concentration of not less than 45 wt %, and the mixtures were thoroughly stirred. The mixtures were left standing at room temperature for 24 hr, and the solubility of histidine was examined. In Table 2, “-” in the pH column means unmeasurable. In Table 2, the composition with *2 was prepared after preparation of the composition with *1, by reducing the amount of water by evaporation under reduced pressure.
Citric acid in the amount indicated in Tables 3 to 5 were added to and dissolved in water at 80 to 100° C. to prepare acidic aqueous solutions. Then, to the prepared acidic aqueous solutions was added histidine (HIS) in the amounts indicated in Tables 3 to 5, and the mixtures were thoroughly stirred. The mixtures were left standing at room temperature for 24 hr, and the solubility of histidine was examined. In Table 5, the composition with *2 was prepared after preparation of the composition with *1, by reducing the amount of water by evaporation under reduced pressure.
as §1, with “substances (citric acid or” for “substances (acetic acid, phosphoric acid, citric acid,”, “malic” for “malic acid, or tartaric”, “Table 6 and 7” for “Table 1”, “histidine” for “histidine (HIS)”, “Table 6 and 7 to a concentration of 20 wt % or 30 wt %,” for “Table 1,”

preparation of liquid composition having a histidine concentration of not less than 47.4 wt % (0.56 part by weight of citric acid or malic acid per 1 part by weight of histidine): could not be prepared
solubility (Table 1: citric acid 60 g, water 50 g, His 90 g, acidic substance/HIS 0.67 W/W, pH before His addition 0.40, HIS concentration 45.0 % (W/W) in liquid, room temperature 24 hr): ∘
solubility (Table 1: citric acid 65 g, water 50 g, His 100 g, acidic substance/HIS 0.65 W/W, pH before His addition 0.30, HIS concentration 46.5 % (W/W) in liquid, room temperature 24 hr): ∘
solubility (Table 1: citric acid 80 g, water 50 g, His 120 g, acidic substance/HIS 0.67 W/W, pH before His addition 0.10, HIS concentration 48.0 % (W/W) in liquid, room temperature 24 hr): ∘
solubility (Table 1: malic acid 60 g, water 50 g, His 90 g, acidic substance/HIS 0.67 W/W, pH before His addition 0.40, HIS concentration 45.0 % (W/W) in liquid, room temperature 24 hr): ∘
solubility (Table 1: tartaric acid 60 g, water 50 g, His 90 g, acidic substance/HIS 0.67 W/W, pH before His addition 0.20, HIS concentration 45.0 % (W/W) in liquid, room temperature 24 hr): ∘
solubility (Table 2 (*1): citric acid 60 g, water 50 g, His 90 g, acidic substance/HIS 0.67 W/W, pH before His addition 0.40, HIS concentration 45.0 % (W/W) in liquid, room temperature 24 hr): ∘
solubility (Table 2 (*2, water reduced by evaporation under reduced pressure from *1): citric acid 60 g, water 10 g, His 90 g, acidic substance/HIS 0.67 W/W, HIS concentration 56.3 % (W/W) in liquid): ∘
solubility (Table 2 (*2, water reduced by evaporation under reduced pressure from *1): citric acid 60 g, water 20 g, His 90 g, acidic substance/HIS 0.67 W/W, HIS concentration 52.9 % (W/W) in liquid): ∘
solubility (Table 2: citric acid 65 g, water 50 g, His 100 g, acidic substance/HIS 0.65 W/W, pH before His addition 0.30, HIS concentration 46.5 % (W/W) in liquid, room temperature 24 hr): ∘
solubility (Table 2: citric acid 80 g, water 50 g, His 120 g, acidic substance/HIS 0.67 W/W, pH before His addition 0.10, HIS concentration 48.0 % (W/W) in liquid, room temperature 24 hr): ∘
solubility (Table 2: citric acid 120 g, water 50 g, His 180 g, acidic substance/HIS 0.67 W/W, HIS concentration 51.4 % (W/W) in liquid, room temperature 24 hr): ∘
solubility (Table 2: malic acid 60 g, water 50 g, His 90 g, acidic substance/HIS 0.67 W/W, pH before His addition 0.40, HIS concentration 45.0 % (W/W) in liquid, room temperature 24 hr): ∘
solubility (Table 2: malic acid 70 g, water 50 g, His 100 g, acidic substance/HIS 0.70 W/W, HIS concentration 45.5 % (W/W) in liquid, room temperature 24 hr): ∘
solubility (Table 2: tartaric acid 60 g, water 50 g, His 90 g, acidic substance/HIS 0.67 W/W, pH before His addition 0.20, HIS concentration 45.0 % (W/W) in liquid, room temperature 24 hr): ∘
solubility (Table 2: tartaric acid 60 g, water 50 g, His 100 g, acidic substance/HIS 0.60 W/W, pH before His addition 0.20, HIS concentration 47.6 % (W/W) in liquid, room temperature 24 hr): ∘
solubility of histidine (Table 3: amount of histidine added to acidic aqueous solution (water 50 g, citric acid 60 g) reduced): fine
solubility (Table 3: citric acid 60 g, water 50 g, His 30 g, acidic substance/HIS 2.00 W/W, HIS concentration 21.4 % (W/W) in liquid, room temperature 24 hr): ◯
solubility (Table 3: citric acid 60 g, water 50 g, His 50 g, acidic substance/HIS 1.20 W/W, HIS concentration 31.3 % (W/W) in liquid, room temperature 24 hr): ◯
solubility (Table 3: citric acid 60 g, water 50 g, His 70 g, acidic substance/HIS 0.86 W/W, HIS concentration 38.9 % (W/W) in liquid, room temperature 24 hr): ◯
solubility (Table 3: citric acid 60 g, water 50 g, His 90 g, acidic substance/HIS 0.67 W/W, HIS concentration 45.0 % (W/W) in liquid, room temperature 24 hr): ◯
solubility (Table 4: citric acid 20.0 g, water 50 g, His 30 g, acidic substance/HIS 0.67 W/W, HIS concentration 30.0 % (W/W) in liquid, room temperature 24 hr): ◯
solubility (Table 4: citric acid 33.3 g, water 50 g, His 50 g, acidic substance/HIS 0.67 W/W, HIS concentration 37.5 % (W/W) in liquid, room temperature 24 hr): ◯
solubility (Table 4: citric acid 46.7 g, water 50 g, His 70 g, acidic substance/HIS 0.67 W/W, HIS concentration 42.0 % (W/W) in liquid, room temperature 24 hr): ◯
solubility (Table 4: citric acid 60 g, water 50 g, His 90 g, acidic substance/HIS 0.67 W/W, HIS concentration 45.0 % (W/W) in liquid, room temperature 24 hr): ◯
solubility of histidine (Table 4: histidine and acidic substance reduced at constant ratio, acidic substance/HIS=0.67 (w/w)): fine
solubility (Table 5 (*1): citric acid 60 g, water 27.8 g, His 50 g, acidic substance/HIS 1.20 W/W, HIS concentration 36.3 % (W/W) in liquid, HIS content 180 % (W/W) to water, room temperature 24 hr): ◯
solubility (Table 5 (*2): citric acid 60 g, water 16.7 g, His 30 g, acidic substance/HIS 2.00 W/W, HIS concentration 28.1 % (W/W) in liquid, HIS content 180 % (W/W) to water): ◯
solubility (Table 5: citric acid 60 g, water 38.9 g, His 70 g, acidic substance/HIS 0.86 W/W, HIS concentration 41.4 % (W/W) in liquid, HIS content 180 % (W/W) to water, room temperature 24 hr): ◯
solubility (Table 5: citric acid 60 g, water 50 g, His 90 g, acidic substance/HIS 0.67 W/W, HIS concentration 45.0 % (W/W) in liquid, HIS content 180 % (W/W) to water, room temperature 24 hr): ◯
solubility of histidine (Table 5: histidine and water reduced at constant ratio, histidine content to water=180% (w/w)): fine
solubility (Table 6: citric acid 2.7 g, water 37.3 g, His 10 g, acidic substance/HIS 0.27 W/W, HIS concentration 20.0 % (W/W) in liquid, room temperature 24 hr): ∘
solubility (Table 6: citric acid 3.7 g, water 36.3 g, His 10 g, acidic substance/HIS 0.37 W/W, HIS concentration 20.0 % (W/W) in liquid, room temperature 24 hr): ∘
solubility (Table 6: citric acid 4.7 g, water 35.3 g, His 10 g, acidic substance/HIS 0.47 W/W, HIS concentration 20.0 % (W/W) in liquid, room temperature 24 hr): ∘
solubility (Table 6: citric acid 5.7 g, water 34.3 g, His 10 g, acidic substance/HIS 0.57 W/W, HIS concentration 20.0 % (W/W) in liquid, room temperature 24 hr): ∘
solubility (Table 6: citric acid 6.7 g, water 33.3 g, His 10 g, acidic substance/HIS 0.67 W/W, HIS concentration 20.0 % (W/W) in liquid, room temperature 24 hr): ∘
solubility (Table 6: malic acid 2.7 g, water 37.3 g, His 10 g, acidic substance/HIS 0.27 W/W, HIS concentration 20.0 % (W/W) in liquid, room temperature 24 hr): ∘
solubility (Table 7: citric acid 6.0 g, water 29.0 g, His 15 g, acidic substance/HIS 0.40 W/W, HIS concentration 30.0 % (W/W) in liquid, room temperature 24 hr): ∘
solubility (Table 7: citric acid 7.0 g, water 28.0 g, His 15 g, acidic substance/HIS 0.47 W/W, HIS concentration 30.0 % (W/W) in liquid, room temperature 24 hr): ∘
solubility (Table 7: citric acid 8.0 g, water 27.0 g, His 15 g, acidic substance/HIS 0.53 W/W, HIS concentration 30.0 % (W/W) in liquid, room temperature 24 hr): ∘
solubility (Table 7: citric acid 9.0 g, water 26.0 g, His 15 g, acidic substance/HIS 0.60 W/W, HIS concentration 30.0 % (W/W) in liquid, room temperature 24 hr): ∘
solubility (Table 7: citric acid 10.0 g, water 25.0 g, His 15 g, acidic substance/HIS 0.67 W/W, HIS concentration 30.0 % (W/W) in liquid, room temperature 24 hr): ∘
solubility (Table 7: malic acid 6.0 g, water 29.0 g, His 15 g, acidic substance/HIS 0.40 W/W, HIS concentration 30.0 % (W/W) in liquid, room temperature 24 hr): ∘
solubility of histidine (citric acid, malic acid or tartaric acid as acidic substance, pH of not more than 1.0, amount corresponding to concentration of not less than 45 wt %): finely dissolved
solubility of histidine (histidine 20 wt %, 0.17 part by weight of acidic substance per 1 part by weight of histidine): not dissolved
solubility of histidine (histidine 20 wt %, not less than 0.27 part by weight of acidic substance per 1 part by weight of histidine): fine
solubility of histidine (histidine 30 wt %, 0.33 part by weight of acidic substance per 1 part by weight of histidine): not dissolved
solubility of histidine (histidine 30 wt %, not less than 0.40 part by weight of acidic substance per 1 part by weight of histidine): fine
histidine concentration of liquid composition that could be prepared (not less than 0.65 part by weight of citric acid, not less than 0.67 of malic acid, or not less than 0.60 of tartaric acid per 1 part by weight of histidine): not less than 45 wt %
SMILES: N[C@@H](Cc1c[nH]cn1)C(=O)O [HIS, histidine]
solubility of histidine (acetic acid or phosphoric acid as acidic substance, acidic aqueous solution pH of not more than 1.0, room temperature 24 hr): not dissolved or, even when dissolved, precipitated
